Experimental data as given in paper PMC4128814, “A High Throughput Screen Identifies Potent and Selective Inhibitors to Human Epithelial 15-Lipoxygenase-2” (PLoS ONE, 2014).

Key:
Assay type in all cases: biochemical
12-LOX = target: T1, 12-LOX (Homo sapiens, UniProt P18054); assay: Lipoxygenase UV-Vis assay, 12-LOX; conditions: estimated from one inhibitor point at 20 µM; 10 µM AA
T1 construct: His6 (N); made in house
T1 sequence (P18054 1-663): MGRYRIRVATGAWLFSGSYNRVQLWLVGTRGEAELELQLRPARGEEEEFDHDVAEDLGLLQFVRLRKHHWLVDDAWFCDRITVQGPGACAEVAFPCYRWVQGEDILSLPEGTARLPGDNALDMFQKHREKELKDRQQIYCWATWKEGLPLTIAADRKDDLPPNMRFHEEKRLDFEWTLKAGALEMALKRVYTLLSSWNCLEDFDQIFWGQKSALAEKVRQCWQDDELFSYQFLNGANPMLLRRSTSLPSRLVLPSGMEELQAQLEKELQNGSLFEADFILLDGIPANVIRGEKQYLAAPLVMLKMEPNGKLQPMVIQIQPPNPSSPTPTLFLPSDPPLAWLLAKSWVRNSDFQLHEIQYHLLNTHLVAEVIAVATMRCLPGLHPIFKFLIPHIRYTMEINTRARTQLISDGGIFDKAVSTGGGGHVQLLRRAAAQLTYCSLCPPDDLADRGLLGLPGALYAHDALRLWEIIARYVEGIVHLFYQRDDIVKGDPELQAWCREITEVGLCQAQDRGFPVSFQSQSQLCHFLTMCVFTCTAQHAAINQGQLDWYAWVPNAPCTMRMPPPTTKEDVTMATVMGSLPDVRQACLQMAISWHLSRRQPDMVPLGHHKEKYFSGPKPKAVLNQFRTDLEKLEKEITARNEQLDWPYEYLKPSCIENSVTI
Description: (§1) Human leukocyte 5-lipoxygenase (5-LOX) was expressed as a non-tagged protein and used as a crude ammonium sulfate protein fraction, as published previously, [20].
(§2) The reactions were initiated by adding 200 nM 15-LOX-2, 30 nM 12-LOX, 40 nM 15-LOX-1, or approximately 100–300 nM (5–10 µL) of 5-LOX crude extract to a cuvette with 2 mL reaction buffer, constantly stirred using a magnetic stir bar at room temperature (22°C). Reaction buffers used for various LOX isozymes were as follows: 25 mM HEPES (pH 7.3), 0.3 mM CaCl2, 0.1 mM EDTA, 0.2 mM ATP, 0.01% Triton X-100, 10 µM AA for the crude, ammonium sulfate precipitated 5-LOX; and 25 mM HEPES (pH 7.5), 0.01% Triton X-100, 10 µM AA for 15-LOX-2, 15-LOX-1, and 12-LOX. The substrate concentration was quantitatively determined by allowing the enzymatic reaction to go to completion in the presence of 15-LOX-2. […] The data were then plotted against inhibitor concentration, followed by a hyperbolic saturation curve fit (assuming total enzyme concentration [E]≪IC50). […] All inhibitors were stored at −20°C in DMSO. NDGA was utilized as positive control for the selectivity assays for the various LOX isozymes.

5-LOX = target: T2, 5-LOX (Homo sapiens, UniProt P09917); assay: Lipoxygenase UV-Vis assay, 5-LOX crude extract; conditions: estimated from one inhibitor point at 20 µM; 10 µM AA
T2 construct: made in house
T2 sequence (P09917 1-674): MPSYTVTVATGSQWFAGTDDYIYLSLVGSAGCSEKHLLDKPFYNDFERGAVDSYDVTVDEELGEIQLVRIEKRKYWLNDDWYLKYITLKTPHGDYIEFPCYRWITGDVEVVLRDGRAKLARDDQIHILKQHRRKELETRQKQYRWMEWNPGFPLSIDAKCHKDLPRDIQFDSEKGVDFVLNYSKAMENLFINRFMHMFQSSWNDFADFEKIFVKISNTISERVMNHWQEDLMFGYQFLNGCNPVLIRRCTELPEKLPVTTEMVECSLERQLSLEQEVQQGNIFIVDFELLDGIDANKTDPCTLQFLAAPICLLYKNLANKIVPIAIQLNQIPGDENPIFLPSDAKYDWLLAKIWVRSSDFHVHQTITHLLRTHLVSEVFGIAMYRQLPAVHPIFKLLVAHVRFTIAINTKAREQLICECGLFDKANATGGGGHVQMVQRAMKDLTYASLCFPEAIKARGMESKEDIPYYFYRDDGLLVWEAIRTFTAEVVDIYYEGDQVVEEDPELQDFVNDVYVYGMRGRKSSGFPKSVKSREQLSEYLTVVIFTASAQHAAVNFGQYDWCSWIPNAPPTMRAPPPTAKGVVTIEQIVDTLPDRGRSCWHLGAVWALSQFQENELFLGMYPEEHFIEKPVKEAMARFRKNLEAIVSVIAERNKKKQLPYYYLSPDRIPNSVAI
Description: as §1, §2

human recombinant COX-2 = target: T3, human recombinant COX-2 (Homo sapiens, UniProt P35354); assay: Cyclooxygenase assay (oxygen electrode), COX-2; conditions: estimated from one inhibitor point at 20 µM; 100 µM AA
T3 construct: purchased Cayman Chemical
T3 sequence (P35354 18-604): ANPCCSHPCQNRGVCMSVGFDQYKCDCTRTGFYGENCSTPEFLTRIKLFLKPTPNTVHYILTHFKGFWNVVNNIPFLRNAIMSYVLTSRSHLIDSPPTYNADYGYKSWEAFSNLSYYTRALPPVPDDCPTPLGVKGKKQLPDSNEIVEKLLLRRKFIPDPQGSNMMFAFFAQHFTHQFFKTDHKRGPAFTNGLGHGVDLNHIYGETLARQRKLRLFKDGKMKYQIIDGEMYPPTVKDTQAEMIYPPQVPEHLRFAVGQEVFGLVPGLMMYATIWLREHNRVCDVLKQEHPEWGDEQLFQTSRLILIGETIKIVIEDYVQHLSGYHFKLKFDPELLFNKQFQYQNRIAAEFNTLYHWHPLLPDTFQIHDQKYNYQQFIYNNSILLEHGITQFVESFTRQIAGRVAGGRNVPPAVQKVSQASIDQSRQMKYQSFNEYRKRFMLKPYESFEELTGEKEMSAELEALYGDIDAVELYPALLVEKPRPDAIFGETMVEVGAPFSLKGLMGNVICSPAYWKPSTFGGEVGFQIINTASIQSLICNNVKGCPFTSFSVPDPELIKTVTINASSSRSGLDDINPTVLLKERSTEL
Description: Cyclooxygenase activity assay was performed as previously described. Approximately 3 µg of either ovine COX-1 (COX-1) or human recombinant COX-2 (COX-2) (Cayman Chemical) were added to buffer containing 0.1 M Tris-HCl buffer (pH 8.0), 5 mM EDTA, 2 mM phenol and 1 µM hematin at 37°C. The selected inhibitors were added to the reaction cell, followed by an incubation of 5 minutes with either of the COX enzymes. The reaction was then initiated by adding 100 µM AA in the reaction cell, as indicated in enzymatic protocol (Cayman Chemicals). Data were collected using a Hansatech DW1 oxygen electrode and the consumption of oxygen was recorded. Indomethacin and the solvent (DMSO), were used as positive and negative controls, respectively, and the percent inhibition of the enzyme was calculated by comparing the rates of the samples to the controls.

IC50 (12-LOX)	IC50 (5-LOX)	IC50 (human recombinant COX-2)	Structure (SMILES)
> 100 µM	> 50 µM	> 100 µM	Clc1ccc(-c2nnc(C3CCCCC3)o2)cc1 [MLS000545091]
> 100 µM	> 100 µM	> 100 µM	Cc1ccc(CSc2ncn(-c3ccccc3)n2)cc1 [MLS000536924]
